Data: the kinase profiling compilation of Christmann-Franck et al. (2016)

Assays:
Experiment in all cases: KINOMEscan competition binding
Details in all cases: compound 10.0 µM
SNRK (human) = SNRK (human) (UniProt Q9NRH2)
[1] = system: PIK3CA (human), P42336 [E545K]
MET (human) = MET (human) (UniProt P08581)
[2] = system: PIK3CA (human), P42336 [H1047Y]
PIP5K1C (human) = PIP5K1C (human) (UniProt O60331)
IRAK4 (human) = IRAK4 (human) (UniProt Q9NWZ3)
PI4KB (human) = PI4KB (human) (UniProt Q9UBF8)
[3] = system: EGFR (human), P00533 [L861Q]
MYLK3 (human) = MYLK3 (human) (UniProt Q32MK0)
SBK1 (human) = SBK1 (human) (UniProt Q52WX2)
DDR1 (human) = DDR1 (human) (UniProt Q08345)
Chain of DDR1 (human) (Q08345 whole entry, looked up): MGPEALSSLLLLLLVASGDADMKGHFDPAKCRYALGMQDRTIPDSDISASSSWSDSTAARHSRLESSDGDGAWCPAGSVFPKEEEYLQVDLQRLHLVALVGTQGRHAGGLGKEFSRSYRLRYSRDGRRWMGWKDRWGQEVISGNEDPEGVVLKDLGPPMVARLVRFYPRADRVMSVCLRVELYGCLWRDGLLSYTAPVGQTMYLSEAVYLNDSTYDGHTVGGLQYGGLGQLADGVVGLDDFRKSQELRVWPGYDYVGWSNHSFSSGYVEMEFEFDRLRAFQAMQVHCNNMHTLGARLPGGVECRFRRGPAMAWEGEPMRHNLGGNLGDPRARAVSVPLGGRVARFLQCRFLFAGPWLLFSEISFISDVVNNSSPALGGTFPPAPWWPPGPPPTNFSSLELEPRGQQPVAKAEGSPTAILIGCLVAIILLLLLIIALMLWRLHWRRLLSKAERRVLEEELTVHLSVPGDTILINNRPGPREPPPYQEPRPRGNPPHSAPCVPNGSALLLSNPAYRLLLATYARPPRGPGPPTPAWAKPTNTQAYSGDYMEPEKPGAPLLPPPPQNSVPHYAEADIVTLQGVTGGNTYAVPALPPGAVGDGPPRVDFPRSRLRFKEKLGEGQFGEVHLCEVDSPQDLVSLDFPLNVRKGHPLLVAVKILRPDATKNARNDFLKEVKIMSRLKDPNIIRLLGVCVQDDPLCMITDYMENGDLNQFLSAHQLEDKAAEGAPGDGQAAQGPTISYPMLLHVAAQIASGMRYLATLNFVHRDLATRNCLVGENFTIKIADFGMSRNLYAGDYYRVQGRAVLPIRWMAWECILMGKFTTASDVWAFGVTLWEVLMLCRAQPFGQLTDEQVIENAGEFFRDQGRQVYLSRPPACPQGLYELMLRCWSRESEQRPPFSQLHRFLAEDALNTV

[4] = system: KIT (human), P10721 [V559D/T670I]
PRPF4B (human) = PRPF4B (human) (UniProt Q13523)
CDKL3 (human) = CDKL3 (human) (UniProt Q8IVW4)
MTOR (human) = MTOR (human) (UniProt P42345)
CDK13 (human) = CDK13 (human) (UniProt Q14004)
HIPK2 (human) = HIPK2 (human) (UniProt Q9H2X6)
CPK1 (P.falciparum) = system: CPK1 (P.falciparum)
[5] = system: PIK3CA (human), P42336 [Q546K]
Chain of PIK3CA (human), P42336 [Q546K] (P42336 whole entry Q546K, looked up): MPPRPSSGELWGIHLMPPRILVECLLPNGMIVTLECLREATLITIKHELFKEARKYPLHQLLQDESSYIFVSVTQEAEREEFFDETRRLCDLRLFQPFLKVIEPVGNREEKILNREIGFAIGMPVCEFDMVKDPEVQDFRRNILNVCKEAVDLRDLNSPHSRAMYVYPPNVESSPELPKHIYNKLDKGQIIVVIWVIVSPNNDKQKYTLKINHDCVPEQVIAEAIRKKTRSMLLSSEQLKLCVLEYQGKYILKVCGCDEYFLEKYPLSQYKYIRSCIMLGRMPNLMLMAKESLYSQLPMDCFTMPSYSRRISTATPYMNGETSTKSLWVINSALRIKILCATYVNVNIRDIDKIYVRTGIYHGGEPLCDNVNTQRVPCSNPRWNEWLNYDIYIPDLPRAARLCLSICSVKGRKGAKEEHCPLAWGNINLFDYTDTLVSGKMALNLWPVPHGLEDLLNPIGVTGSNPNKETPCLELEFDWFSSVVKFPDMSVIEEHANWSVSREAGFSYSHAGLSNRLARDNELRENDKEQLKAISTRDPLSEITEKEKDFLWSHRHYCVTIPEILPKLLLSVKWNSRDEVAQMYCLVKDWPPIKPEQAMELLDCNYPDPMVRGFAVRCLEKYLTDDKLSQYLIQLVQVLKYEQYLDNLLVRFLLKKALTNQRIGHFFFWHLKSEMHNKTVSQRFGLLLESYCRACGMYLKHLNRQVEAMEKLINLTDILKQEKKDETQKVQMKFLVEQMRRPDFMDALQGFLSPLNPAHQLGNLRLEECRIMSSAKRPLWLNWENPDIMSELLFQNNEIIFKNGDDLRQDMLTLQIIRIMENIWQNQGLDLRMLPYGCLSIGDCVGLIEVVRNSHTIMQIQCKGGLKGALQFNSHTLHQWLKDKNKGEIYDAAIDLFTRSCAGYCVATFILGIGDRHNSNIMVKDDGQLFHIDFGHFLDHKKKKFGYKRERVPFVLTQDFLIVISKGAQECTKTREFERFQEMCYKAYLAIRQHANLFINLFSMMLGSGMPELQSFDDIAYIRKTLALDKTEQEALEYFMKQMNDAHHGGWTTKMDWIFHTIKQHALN

MAP3K1 (human) = MAP3K1 (human) (UniProt Q13233)
CASK (human) = CASK (human) (UniProt O14936)
GRK7 (human) = GRK7 (human) (UniProt Q8WTQ7)
HUNK (human) = HUNK (human) (UniProt P57058)
[6] = system: PIK3CA (human), P42336 [E545A]
[7] = system: PIK3CA (human), P42336 [C420R]
SGK3 (human) = SGK3 (human) (UniProt Q96BR1)
TBK1 (human) = TBK1 (human) (UniProt Q9UHD2)
SIK3 (human) = SIK3 (human) (UniProt Q9Y2K2)
DSTYK (human) = DSTYK (human) (UniProt Q6XUX3)
Chain of DSTYK (human) (Q6XUX3 whole entry, looked up): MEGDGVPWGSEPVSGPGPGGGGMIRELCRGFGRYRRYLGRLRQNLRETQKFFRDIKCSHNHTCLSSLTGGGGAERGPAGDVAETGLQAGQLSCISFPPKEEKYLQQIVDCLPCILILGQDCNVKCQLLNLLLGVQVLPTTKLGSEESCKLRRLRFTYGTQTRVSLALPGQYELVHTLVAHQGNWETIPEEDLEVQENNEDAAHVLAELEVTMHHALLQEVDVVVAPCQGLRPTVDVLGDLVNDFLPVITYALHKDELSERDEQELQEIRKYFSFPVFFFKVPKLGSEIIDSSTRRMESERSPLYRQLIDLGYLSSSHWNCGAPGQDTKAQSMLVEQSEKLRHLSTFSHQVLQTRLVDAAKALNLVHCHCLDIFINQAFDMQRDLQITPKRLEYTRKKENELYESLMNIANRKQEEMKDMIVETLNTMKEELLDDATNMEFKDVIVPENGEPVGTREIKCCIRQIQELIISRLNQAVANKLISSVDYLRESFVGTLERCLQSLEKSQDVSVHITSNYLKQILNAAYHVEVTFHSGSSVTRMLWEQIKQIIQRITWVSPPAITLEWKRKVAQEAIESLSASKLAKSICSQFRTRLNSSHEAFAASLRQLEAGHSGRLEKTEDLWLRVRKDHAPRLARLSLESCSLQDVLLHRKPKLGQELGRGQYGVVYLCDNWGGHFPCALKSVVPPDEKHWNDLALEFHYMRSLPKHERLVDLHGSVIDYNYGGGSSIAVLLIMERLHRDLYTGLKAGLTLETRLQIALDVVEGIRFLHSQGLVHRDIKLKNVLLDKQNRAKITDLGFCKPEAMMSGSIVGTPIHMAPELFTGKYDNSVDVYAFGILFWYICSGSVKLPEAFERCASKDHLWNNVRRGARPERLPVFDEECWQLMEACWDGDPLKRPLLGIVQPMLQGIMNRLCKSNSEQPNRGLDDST

CDK2 (human) = CDK2 (human) (UniProt P24941)
VRK2 (human) = VRK2 (human) (UniProt Q86Y07)
Chain of VRK2 (human) (Q86Y07 whole entry, looked up): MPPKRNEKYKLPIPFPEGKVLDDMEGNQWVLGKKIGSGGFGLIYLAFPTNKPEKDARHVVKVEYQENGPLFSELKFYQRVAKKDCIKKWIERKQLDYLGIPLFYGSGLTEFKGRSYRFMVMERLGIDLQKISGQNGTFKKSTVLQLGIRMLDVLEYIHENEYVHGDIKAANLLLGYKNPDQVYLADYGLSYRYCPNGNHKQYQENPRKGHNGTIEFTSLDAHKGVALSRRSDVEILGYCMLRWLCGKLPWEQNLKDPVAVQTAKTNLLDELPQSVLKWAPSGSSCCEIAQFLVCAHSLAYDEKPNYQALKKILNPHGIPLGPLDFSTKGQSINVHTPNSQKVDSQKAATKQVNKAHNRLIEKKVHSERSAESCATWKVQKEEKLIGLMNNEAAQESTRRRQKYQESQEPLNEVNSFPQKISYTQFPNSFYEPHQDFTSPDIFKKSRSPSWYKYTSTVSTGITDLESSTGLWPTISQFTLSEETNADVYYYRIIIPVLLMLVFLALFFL

PIK3CA (human) = PIK3CA (human) (UniProt P42336)
[8] = system: EGFR (human), P00533 [746-750 del]
EPHB6 (human) = EPHB6 (human) (UniProt O15197)
Chain of EPHB6 (human) (O15197 whole entry, looked up): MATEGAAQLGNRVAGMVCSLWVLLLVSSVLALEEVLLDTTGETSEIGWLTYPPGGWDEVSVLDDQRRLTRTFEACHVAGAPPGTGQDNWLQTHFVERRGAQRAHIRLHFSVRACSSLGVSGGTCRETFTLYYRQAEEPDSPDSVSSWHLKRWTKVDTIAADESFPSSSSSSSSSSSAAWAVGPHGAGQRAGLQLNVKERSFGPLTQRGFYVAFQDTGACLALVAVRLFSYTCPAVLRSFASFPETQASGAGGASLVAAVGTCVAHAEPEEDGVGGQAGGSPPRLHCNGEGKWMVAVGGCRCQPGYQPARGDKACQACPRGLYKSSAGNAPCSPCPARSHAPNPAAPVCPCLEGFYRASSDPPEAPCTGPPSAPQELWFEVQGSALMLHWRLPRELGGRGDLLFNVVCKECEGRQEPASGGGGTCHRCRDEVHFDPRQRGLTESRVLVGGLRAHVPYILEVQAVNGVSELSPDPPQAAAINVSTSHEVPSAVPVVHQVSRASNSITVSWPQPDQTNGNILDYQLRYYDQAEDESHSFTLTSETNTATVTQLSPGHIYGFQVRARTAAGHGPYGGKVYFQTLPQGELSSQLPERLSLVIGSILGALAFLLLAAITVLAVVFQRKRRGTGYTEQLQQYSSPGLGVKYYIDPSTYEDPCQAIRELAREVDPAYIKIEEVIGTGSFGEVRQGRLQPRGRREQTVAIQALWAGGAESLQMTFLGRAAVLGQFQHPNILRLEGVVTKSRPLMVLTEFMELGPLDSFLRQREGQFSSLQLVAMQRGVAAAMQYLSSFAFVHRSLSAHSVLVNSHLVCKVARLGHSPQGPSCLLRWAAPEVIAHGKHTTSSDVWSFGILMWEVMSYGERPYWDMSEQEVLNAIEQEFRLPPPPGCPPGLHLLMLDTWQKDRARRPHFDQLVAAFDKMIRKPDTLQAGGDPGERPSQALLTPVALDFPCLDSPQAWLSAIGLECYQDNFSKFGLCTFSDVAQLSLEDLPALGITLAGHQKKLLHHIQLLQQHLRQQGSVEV

PRKCI (human) = PRKCI (human) (UniProt P41743)
MAP3K15 (human) = MAP3K15 (human) (UniProt Q6ZN16)
ERN1 (human) = ERN1 (human) (UniProt O75460)
PIP4K2C (human) = PIP4K2C (human) (UniProt Q8TBX8)
BTK (human) = BTK (human) (UniProt Q06187)
Chain of BTK (human) (Q06187 whole entry, looked up): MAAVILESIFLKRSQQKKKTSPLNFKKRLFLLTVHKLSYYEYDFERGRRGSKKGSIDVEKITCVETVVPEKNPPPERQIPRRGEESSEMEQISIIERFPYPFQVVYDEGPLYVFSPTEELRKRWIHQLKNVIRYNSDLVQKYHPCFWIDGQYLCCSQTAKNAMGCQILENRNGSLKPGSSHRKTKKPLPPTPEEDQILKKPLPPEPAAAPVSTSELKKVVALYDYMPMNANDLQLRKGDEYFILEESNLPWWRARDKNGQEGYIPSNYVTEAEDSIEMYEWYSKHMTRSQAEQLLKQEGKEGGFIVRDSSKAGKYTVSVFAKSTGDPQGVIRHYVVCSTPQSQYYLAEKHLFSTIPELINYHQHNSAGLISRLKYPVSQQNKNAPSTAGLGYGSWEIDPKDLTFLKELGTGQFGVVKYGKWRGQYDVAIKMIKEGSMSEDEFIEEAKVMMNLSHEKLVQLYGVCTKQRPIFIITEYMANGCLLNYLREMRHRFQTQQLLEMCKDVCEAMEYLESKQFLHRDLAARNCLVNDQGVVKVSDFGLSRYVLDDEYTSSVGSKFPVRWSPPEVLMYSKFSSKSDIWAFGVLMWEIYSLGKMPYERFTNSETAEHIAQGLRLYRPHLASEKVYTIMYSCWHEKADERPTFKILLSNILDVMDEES

BRAF (human) = BRAF (human) (UniProt P15056)

SMILES	kinase still bound, per cent of control (SNRK (human)) [%]	kinase still bound, per cent of control [1] [%]	kinase still bound, per cent of control [2] [%]	kinase still bound, per cent of control (PIP5K1C (human)) [%]	kinase still bound, per cent of control (IRAK4 (human)) [%]	kinase still bound, per cent of control (PI4KB (human)) [%]	kinase still bound, per cent of control (SBK1 (human)) [%]	kinase still bound, per cent of control (DDR1 (human)) [%]	kinase still bound, per cent of control [4] [%]	kinase still bound, per cent of control (PRPF4B (human)) [%]	kinase still bound, per cent of control (CDKL3 (human)) [%]	kinase still bound, per cent of control (MTOR (human)) [%]	kinase still bound, per cent of control (CDK13 (human)) [%]	kinase still bound, per cent of control (CPK1 (P.falciparum)) [%]	kinase still bound, per cent of control [5] [%]	kinase still bound, per cent of control (MAP3K1 (human)) [%]	kinase still bound, per cent of control (CASK (human)) [%]	kinase still bound, per cent of control (GRK7 (human)) [%]	kinase still bound, per cent of control (HUNK (human)) [%]	kinase still bound, per cent of control [6] [%]	further results
CN(C)C/C=C/C(=O)Nc1cccc(Nc2ncc3c(n2)N(C)c2ccccc2C(=O)N3C)c1	58	100	51	11	73	87	7.6	5.4	65	100	100	74	96	74	30	72	39	100	47	67	kinase still bound, per cent of control (MET (human)): 48%; kinase still bound, per cent of control [3]: 73%; kinase still bound, per cent of control (MYLK3 (human)): 100%; kinase still bound, per cent of control (HIPK2 (human)): 89%; kinase still bound, per cent of control [7]: 72%; kinase still bound, per cent of control (SGK3 (human)): 90%; kinase still bound, per cent of control (TBK1 (human)): 58%; kinase still bound, per cent of control (SIK3 (human)): 20%; kinase still bound, per cent of control (DSTYK (human)): 18%; kinase still bound, per cent of control (CDK2 (human)): 94%; kinase still bound, per cent of control (VRK2 (human)): 73%; kinase still bound, per cent of control (PIK3CA (human)): 54%; kinase still bound, per cent of control [8]: 90%; kinase still bound, per cent of control (EPHB6 (human)): 4.3%; kinase still bound, per cent of control (PRKCI (human)): 97%; kinase still bound, per cent of control (MAP3K15 (human)): 69%; kinase still bound, per cent of control (ERN1 (human)): 69%; kinase still bound, per cent of control (PIP4K2C (human)): 6%; kinase still bound, per cent of control (BTK (human)): 42%
O=C(NOC[C@H](O)CO)c1ccc(F)c(F)c1Nc1ccc(I)cc1F	100	53	57	100	100	100	100	50	90	77	98	100	84	78	41	54	67	100	100	45	kinase still bound, per cent of control (BRAF (human)): 98%; kinase still bound, per cent of control [7]: 50%; kinase still bound, per cent of control (SGK3 (human)): 89%; kinase still bound, per cent of control (TBK1 (human)): 85%; kinase still bound, per cent of control (SIK3 (human)): 52%; kinase still bound, per cent of control (DSTYK (human)): 100%; kinase still bound, per cent of control (CDK2 (human)): 91%; kinase still bound, per cent of control (VRK2 (human)): 100%; kinase still bound, per cent of control (PIK3CA (human)): 56%; kinase still bound, per cent of control (EPHB6 (human)): 87%; kinase still bound, per cent of control (PRKCI (human)): 70%; kinase still bound, per cent of control (MAP3K15 (human)): 100%; kinase still bound, per cent of control (ERN1 (human)): 97%; kinase still bound, per cent of control (PIP4K2C (human)): 100%; kinase still bound, per cent of control (BTK (human)): 87%
